According to patent US12227500B2, “Substituted pyrrolo[2,3-b]pyridines for suppressing toxic endoplasmic reticulum stress” (THE TRUSTEES OF COLUMBIA UNIVERSITY IN THE CITY OF NEW YORK, priority 2018, dated 2025):

How the values were obtained:
Assay in all cases: Radiolabeled ATP kinase assay, panel of 371 kinases (Table S6)
Assay type in all cases: biochemical
[1] = biological target: T1, panel of 371 human kinases (Homo sapiens, UniProt P42681); details: TXK; 0.1 μM; 10 μM ATP; read-out: % Enzyme Activity (relative to DMSO controls)
T1 construct: purchased Reaction Biology Corp
T1 sequence (P42681 whole entry): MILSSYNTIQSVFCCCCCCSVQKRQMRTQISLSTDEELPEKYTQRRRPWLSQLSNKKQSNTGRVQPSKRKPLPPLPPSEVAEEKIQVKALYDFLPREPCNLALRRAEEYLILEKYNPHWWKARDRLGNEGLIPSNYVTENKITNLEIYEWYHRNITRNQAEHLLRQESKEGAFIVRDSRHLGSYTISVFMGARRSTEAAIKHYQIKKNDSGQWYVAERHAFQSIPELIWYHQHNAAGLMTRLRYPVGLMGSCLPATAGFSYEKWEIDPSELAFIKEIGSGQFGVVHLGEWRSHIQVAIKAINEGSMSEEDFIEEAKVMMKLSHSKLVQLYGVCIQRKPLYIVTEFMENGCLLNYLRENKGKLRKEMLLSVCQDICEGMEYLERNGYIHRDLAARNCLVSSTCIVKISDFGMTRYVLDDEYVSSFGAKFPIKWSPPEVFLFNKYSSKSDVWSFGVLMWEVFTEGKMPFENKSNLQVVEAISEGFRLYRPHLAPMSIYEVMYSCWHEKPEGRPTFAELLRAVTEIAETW
Excerpt: (§1) ; FIG. 38C). […]. Further targeted analyses, such as genetic knock-down or knock-out, may be warranted to parse the role of these additional kinases in our model of neurodegeneration.

[2] = biological target: T2, panel of 371 human kinases (Homo sapiens, UniProt Q86UE8); details: TLK2; 0.1 μM; 10 μM ATP; read-out: % Enzyme Activity (relative to DMSO controls)
T2 construct: purchased Reaction Biology Corp
Excerpt: as §1

[3] = biological target: T3, panel of 371 human kinases (Homo sapiens, UniProt P25098); details: GRK2; 0.1 μM; 10 μM ATP; read-out: % Enzyme Activity (relative to DMSO controls)
T3 construct: purchased Reaction Biology Corp
Excerpt: as §1

[4] = biological target: T4, panel of 371 human kinases (Homo sapiens, UniProt P08922); details: ROS/ROS1; 0.1 μM; 10 μM ATP; read-out: % Enzyme Activity (relative to DMSO controls)
T4 construct: purchased Reaction Biology Corp
T4 sequence (P08922 28-2347): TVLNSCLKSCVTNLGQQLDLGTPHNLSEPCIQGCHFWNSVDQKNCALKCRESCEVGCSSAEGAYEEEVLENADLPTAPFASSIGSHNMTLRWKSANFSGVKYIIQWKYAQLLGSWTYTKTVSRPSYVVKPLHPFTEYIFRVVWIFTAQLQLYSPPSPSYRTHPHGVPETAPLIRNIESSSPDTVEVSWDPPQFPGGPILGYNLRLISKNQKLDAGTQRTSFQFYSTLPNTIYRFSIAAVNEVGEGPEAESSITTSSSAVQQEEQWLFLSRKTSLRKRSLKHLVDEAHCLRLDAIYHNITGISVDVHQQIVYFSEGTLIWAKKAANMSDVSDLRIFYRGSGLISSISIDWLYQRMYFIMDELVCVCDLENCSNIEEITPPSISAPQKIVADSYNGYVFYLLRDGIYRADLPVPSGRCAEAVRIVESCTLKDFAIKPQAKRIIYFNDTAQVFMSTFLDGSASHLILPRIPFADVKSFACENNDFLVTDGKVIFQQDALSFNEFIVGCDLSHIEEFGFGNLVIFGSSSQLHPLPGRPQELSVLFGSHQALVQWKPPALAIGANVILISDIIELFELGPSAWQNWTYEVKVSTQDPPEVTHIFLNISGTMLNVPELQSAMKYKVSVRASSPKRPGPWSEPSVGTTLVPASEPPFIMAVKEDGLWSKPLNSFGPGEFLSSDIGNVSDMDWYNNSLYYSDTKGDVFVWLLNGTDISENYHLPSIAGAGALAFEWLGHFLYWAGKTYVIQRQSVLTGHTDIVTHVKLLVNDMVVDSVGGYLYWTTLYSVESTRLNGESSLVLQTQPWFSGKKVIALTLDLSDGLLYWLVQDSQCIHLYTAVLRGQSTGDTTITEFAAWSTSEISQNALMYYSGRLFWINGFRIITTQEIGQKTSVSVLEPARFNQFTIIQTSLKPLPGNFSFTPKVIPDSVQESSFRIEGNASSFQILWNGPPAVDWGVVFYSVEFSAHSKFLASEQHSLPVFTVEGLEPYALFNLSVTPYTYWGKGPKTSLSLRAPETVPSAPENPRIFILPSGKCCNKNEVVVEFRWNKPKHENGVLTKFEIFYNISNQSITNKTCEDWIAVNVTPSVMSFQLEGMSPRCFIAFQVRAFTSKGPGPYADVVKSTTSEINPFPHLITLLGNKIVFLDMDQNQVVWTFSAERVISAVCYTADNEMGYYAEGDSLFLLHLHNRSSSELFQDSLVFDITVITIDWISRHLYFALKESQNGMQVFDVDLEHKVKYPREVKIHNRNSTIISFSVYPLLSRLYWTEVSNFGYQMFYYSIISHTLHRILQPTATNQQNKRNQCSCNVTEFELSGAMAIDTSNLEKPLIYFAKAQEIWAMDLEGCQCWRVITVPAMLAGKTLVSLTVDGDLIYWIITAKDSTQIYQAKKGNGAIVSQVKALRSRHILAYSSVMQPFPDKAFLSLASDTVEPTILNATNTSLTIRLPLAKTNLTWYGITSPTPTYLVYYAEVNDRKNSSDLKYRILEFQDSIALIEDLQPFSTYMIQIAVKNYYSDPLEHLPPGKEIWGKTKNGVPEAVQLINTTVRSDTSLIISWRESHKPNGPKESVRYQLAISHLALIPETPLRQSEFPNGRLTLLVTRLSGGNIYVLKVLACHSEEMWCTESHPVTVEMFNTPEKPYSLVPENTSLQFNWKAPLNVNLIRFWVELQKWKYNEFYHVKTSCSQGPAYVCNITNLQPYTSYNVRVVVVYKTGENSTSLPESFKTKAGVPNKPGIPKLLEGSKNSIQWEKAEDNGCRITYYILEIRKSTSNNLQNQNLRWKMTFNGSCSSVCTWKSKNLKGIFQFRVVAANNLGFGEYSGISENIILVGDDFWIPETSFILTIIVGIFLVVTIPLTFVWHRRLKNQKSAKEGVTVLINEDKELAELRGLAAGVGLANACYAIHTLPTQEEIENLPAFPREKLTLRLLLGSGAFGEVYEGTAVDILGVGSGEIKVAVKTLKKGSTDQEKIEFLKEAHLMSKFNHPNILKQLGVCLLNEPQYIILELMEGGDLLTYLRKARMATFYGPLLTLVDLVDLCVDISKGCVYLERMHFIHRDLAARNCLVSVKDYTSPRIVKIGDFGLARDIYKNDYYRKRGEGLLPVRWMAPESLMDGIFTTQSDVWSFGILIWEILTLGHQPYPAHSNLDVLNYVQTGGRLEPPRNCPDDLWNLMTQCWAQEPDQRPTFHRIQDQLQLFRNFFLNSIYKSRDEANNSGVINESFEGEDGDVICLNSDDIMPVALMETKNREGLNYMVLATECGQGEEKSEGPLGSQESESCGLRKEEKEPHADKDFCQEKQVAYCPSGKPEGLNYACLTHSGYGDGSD
Excerpt: as §1

[5] = biological target: T5, panel of 371 human kinases (Homo sapiens, UniProt Q14680); details: MELK; 0.1 μM; 10 μM ATP; read-out: % Enzyme Activity (relative to DMSO controls)
T5 construct: purchased Reaction Biology Corp
T5 sequence (Q14680 whole entry): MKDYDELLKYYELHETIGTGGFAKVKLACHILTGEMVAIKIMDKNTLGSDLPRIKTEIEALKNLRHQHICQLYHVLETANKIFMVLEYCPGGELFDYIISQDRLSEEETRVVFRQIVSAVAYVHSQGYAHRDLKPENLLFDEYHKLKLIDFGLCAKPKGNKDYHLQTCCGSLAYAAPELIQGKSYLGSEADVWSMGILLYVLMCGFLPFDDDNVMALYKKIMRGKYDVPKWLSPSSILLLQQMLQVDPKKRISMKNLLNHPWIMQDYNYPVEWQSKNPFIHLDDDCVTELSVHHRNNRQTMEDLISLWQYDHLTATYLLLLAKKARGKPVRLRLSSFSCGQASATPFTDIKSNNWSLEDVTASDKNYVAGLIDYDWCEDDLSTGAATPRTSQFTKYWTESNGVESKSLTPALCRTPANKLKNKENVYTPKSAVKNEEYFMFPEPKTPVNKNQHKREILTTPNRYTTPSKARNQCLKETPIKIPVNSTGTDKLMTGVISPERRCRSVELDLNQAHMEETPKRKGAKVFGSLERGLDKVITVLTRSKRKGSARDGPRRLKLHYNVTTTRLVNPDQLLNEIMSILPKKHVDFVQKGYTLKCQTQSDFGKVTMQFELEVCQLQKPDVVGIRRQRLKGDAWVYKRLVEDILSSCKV
Excerpt: as §1

[6] = biological target: T6, panel of 371 human kinases (Homo sapiens, UniProt P42684); details: ABL2/ARG; 0.1 μM; 10 μM ATP; read-out: % Enzyme Activity (relative to DMSO controls)
T6 construct: purchased Reaction Biology Corp
Excerpt: as §1

[7] = biological target: T7, panel of 371 human kinases (Homo sapiens, UniProt Q02779); details: MLK2/MAP3K10; 0.1 μM; 10 μM ATP; read-out: % Enzyme Activity (relative to DMSO controls)
T7 construct: purchased Reaction Biology Corp
Excerpt: as §1

[8] = biological target: T8, panel of 371 human kinases (Homo sapiens, UniProt P36897); details: ALK5/TGFBR1; 0.1 μM; 10 μM ATP; read-out: % Enzyme Activity (relative to DMSO controls)
T8 construct: purchased Reaction Biology Corp
T8 sequence (P36897 34-503): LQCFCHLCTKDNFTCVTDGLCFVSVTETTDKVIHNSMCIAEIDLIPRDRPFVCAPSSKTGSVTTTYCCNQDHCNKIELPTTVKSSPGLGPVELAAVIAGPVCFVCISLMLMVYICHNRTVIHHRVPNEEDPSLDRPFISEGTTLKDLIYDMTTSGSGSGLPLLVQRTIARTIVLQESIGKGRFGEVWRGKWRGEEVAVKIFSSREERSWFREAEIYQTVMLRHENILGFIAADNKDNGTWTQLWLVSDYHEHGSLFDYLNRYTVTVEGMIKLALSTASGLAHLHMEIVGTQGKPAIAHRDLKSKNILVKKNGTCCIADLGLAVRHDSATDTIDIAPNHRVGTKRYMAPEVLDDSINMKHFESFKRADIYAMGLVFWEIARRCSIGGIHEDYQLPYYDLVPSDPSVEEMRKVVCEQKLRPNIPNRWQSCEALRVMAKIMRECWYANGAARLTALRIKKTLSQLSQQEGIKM
Excerpt: as §1

[9] = biological target: T9, panel of 371 human kinases (Homo sapiens, UniProt Q8TD19); details: NEK9; 0.1 μM; 10 μM ATP; read-out: % Enzyme Activity (relative to DMSO controls)
T9 construct: purchased Reaction Biology Corp
Excerpt: as §1

[10] = biological target: T10, panel of 371 human kinases (Homo sapiens, UniProt Q96GD4); details: Aurora B; 0.1 μM; 10 μM ATP; read-out: % Enzyme Activity (relative to DMSO controls)
T10 construct: purchased Reaction Biology Corp
Excerpt: as §1

[11] = biological target: T11, panel of 371 human kinases (Homo sapiens, UniProt Q15746); details: MLCK/MYLK; 0.1 μM; 10 μM ATP; read-out: % Enzyme Activity (relative to DMSO controls)
T11 construct: purchased Reaction Biology Corp
Excerpt: as §1

[12] = biological target: T12, panel of 371 human kinases (Homo sapiens, UniProt O00506); details: STK25/YSK1; 0.1 μM; 10 μM ATP; read-out: % Enzyme Activity (relative to DMSO controls)
T12 construct: purchased Reaction Biology Corp
Excerpt: as §1

[13] = biological target: T13, panel of 371 human kinases (Homo sapiens, UniProt Q86SG6); details: NEK8; 0.1 μM; 10 μM ATP; read-out: % Enzyme Activity (relative to DMSO controls)
T13 construct: purchased Reaction Biology Corp
Excerpt: as §1

[14] = biological target: T14, panel of 371 human kinases (Homo sapiens, UniProt O75676); details: MSK2/RPS6KA4; 0.1 μM; 10 μM ATP; read-out: % Enzyme Activity (relative to DMSO controls)
T14 construct: purchased Reaction Biology Corp
Excerpt: as §1

[15] = biological target: T15, panel of 371 human kinases (Homo sapiens, UniProt P17252); details: PKCa; 0.1 μM; 10 μM ATP; read-out: % Enzyme Activity (relative to DMSO controls)
T15 construct: purchased Reaction Biology Corp
Excerpt: as §1

[16] = biological target: T16, panel of 371 human kinases (Homo sapiens, UniProt P45984); details: JNK2; 0.1 μM; 10 μM ATP; read-out: % Enzyme Activity (relative to DMSO controls)
T16 construct: purchased Reaction Biology Corp
Excerpt: as §1

[17] = biological target: T17, panel of 371 human kinases (Homo sapiens, UniProt P11362); details: FGFR1; 0.1 μM; 10 μM ATP; read-out: % Enzyme Activity (relative to DMSO controls)
T17 construct: purchased Reaction Biology Corp
Excerpt: as §1

[18] = biological target: T18, panel of 371 human kinases (Homo sapiens, UniProt Q9H2G2); details: SLK/STK2; 0.1 μM; 10 μM ATP; read-out: % Enzyme Activity (relative to DMSO controls)
T18 construct: purchased Reaction Biology Corp
Excerpt: as §1

[19] = biological target: T19, panel of 371 human kinases (Homo sapiens, UniProt Q8TF76); details: Haspin; 0.1 μM; 10 μM ATP; read-out: % Enzyme Activity (relative to DMSO controls)
T19 construct: purchased Reaction Biology Corp
Excerpt: as §1

[20] = biological target: T20, panel of 371 human kinases (Homo sapiens, UniProt Q9P289); details: MST4; 0.1 μM; 10 μM ATP; read-out: % Enzyme Activity (relative to DMSO controls)
T20 construct: purchased Reaction Biology Corp
Excerpt: as §1

[21] = biological target: T21, panel of 371 human kinases (Homo sapiens, UniProt Q6P5Z2); details: PKN3/PRK3; 0.1 μM; 10 μM ATP; read-out: % Enzyme Activity (relative to DMSO controls)
T21 construct: purchased Reaction Biology Corp
T21 sequence (Q6P5Z2 whole entry): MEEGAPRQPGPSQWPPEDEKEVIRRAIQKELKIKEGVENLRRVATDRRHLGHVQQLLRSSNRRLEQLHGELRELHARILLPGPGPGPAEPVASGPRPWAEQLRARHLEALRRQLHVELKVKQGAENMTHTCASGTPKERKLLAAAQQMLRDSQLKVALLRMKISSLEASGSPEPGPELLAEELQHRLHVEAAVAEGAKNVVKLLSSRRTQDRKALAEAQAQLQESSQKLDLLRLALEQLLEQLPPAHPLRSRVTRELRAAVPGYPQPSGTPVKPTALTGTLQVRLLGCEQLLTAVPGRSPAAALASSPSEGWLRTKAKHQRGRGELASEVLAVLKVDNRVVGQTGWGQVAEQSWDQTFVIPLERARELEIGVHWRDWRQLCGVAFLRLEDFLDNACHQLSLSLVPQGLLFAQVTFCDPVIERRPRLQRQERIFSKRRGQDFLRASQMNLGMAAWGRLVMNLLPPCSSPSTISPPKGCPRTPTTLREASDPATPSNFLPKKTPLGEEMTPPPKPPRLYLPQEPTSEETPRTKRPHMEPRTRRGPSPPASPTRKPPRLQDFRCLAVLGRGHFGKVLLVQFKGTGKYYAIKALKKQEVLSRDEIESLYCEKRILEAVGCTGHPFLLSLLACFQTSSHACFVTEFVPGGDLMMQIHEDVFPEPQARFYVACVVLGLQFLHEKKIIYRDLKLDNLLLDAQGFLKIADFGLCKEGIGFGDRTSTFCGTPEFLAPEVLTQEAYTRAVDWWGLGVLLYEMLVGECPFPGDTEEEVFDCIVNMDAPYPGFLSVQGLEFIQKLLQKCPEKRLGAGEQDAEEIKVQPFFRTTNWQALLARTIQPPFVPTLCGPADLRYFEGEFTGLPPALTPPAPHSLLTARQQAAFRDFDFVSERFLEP
Excerpt: as §1

[22] = biological target: T22, panel of 371 human kinases (Homo sapiens, UniProt O95835); details: LATS1; 0.1 μM; 10 μM ATP; read-out: % Enzyme Activity (relative to DMSO controls)
T22 construct: purchased Reaction Biology Corp
Excerpt: as §1

[23] = biological target: T23, panel of 371 human kinases (Homo sapiens, UniProt P04626); details: ERBB2/HER2; 0.1 μM; 10 μM ATP; read-out: % Enzyme Activity (relative to DMSO controls)
T23 construct: purchased Reaction Biology Corp
Excerpt: as §1

[24] = biological target: T24, panel of 371 human kinases (Homo sapiens, UniProt Q86UX6); details: STK32C/YANK3; 0.1 μM; 10 μM ATP; read-out: % Enzyme Activity (relative to DMSO controls)
T24 construct: purchased Reaction Biology Corp
Excerpt: as §1

SMILES | remaining activity at 0.1 µM [1] | remaining activity at 0.1 µM [2] | remaining activity at 0.1 µM [3] | remaining activity at 0.1 µM [4] | remaining activity at 0.1 µM [5] | remaining activity at 0.1 µM [6] | remaining activity at 0.1 µM [7] | remaining activity at 0.1 µM [8] | remaining activity at 0.1 µM [9] | remaining activity at 0.1 µM [10] | remaining activity at 0.1 µM [11] | remaining activity at 0.1 µM [12] | remaining activity at 0.1 µM [13] | remaining activity at 0.1 µM [14] | remaining activity at 0.1 µM [15] | remaining activity at 0.1 µM [16] | remaining activity at 0.1 µM [17] | remaining activity at 0.1 µM [18] | remaining activity at 0.1 µM [19] | remaining activity at 0.1 µM [20] | also measured
CN1CCN(Cc2ccc(-c3cnc4[nH]cc(-c5ccc6[nH]ccc6c5)c4c3)cc2)CC1 [Compound 1, 3-(1H-Indol-5-yl)-5-(4-((4-methylpiperazin-1-yl)methyl)phenyl)-1H-pyrrolo[2,3-b]pyridine, reference compound] | 85.3% | 93% | 94% | 96% | 48.1% | 76.8% | 84.1% | 97.6% | 101% | 103% | 93.4% | 102% | 99.1% | 114% | 91.4% | 99.4% | 93.9% | 93.2% | 128% | 73% | remaining activity at 0.1 µM [21]: 84.7%; remaining activity at 0.1 µM [22]: 83.6%; remaining activity at 0.1 µM [23]: 95.3%; remaining activity at 0.1 µM [24]: 98.3%
OCCN1CCN(Cc2ccc(-c3cnc4[nH]cc(-c5cccc(Cl)c5)c4c3)cc2)CC1 [Compound 12k, 2-(4-(4-(3-(3-Chlorophenyl)-1H-pyrrolo[2,3-b]pyridin-5-yl)benzyl)piperazin-1-yl)ethan-1-ol] | 87% | 95.2% | 96.3% | 94.2% | 71% | 75.1% | 73.1% | 98.5% | 95.1% | 82.6% | 99.1% | 72.4% | 97.9% | 110% | 98.5% | 97% | 95% | 83.5% | 75% | 73.2% | remaining activity at 0.1 µM [21]: 93.7%; remaining activity at 0.1 µM [22]: 84.4%; remaining activity at 0.1 µM [23]: 96%; remaining activity at 0.1 µM [24]: 93%
